Assay results as given in patent US8420657B2 (Novartis AG, priority 2008, dated 2013).

Columns and labels:
[1] = molecular target: T1, GST-JAK2(808-1132) (Homo sapiens, UniProt O60674); assay: JAK2 kinase assay (Caliper mobility shift, LabChip 3000); assay type: biochemical
T1 construct: GST-JAK2(808-1132); purchased Invitrogen (Carlsbad, USA) #4288
In short: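 Recombinant GST-JAK2(808-1132) kinase domain with FITC-labelled JAK3tide peptide substrate and ATP; 60 min at 30 °C, EDTA stop. Substrate/product ratio read by microfluidic mobility shift; compounds at 8 final concentrations, 10 to 0.003 μM.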

[2] = test system: JAK1/JAK2-dependent nuclear translocation of STAT1-GFP in HT1080 fibrosarcoma cells; assay: STAT1 nuclear translocation assay (Cellomics), IFN-γ stimulated HT1080 STAT1-GFP cells; assay type: cell-based; details: Homo sapiens, HT-1080, STAT1 translocation pathway
Source text: The medium-throughput (96-well format) cellular automated fluorescence microscopy Cellomics assay can be routinely used to assess the functional activation of Janus Kinases (JAKs), based on the nuclear translocation of their substrate, Signal Transducer and Activator of Transcription (STAT). Nuclear translocation can be monitored either in HT1080 fibrosarcoma cells stably transfected with STAT1 fused to Green Fluorescence Protein (GFP) or in U-2 OS osteosarcoma cells stably transfected with STAT5 fused to Green Fluorescence Protein (GFP). Stimulation of HT1080 cells with interferon-γ (IFN-γ) results in JAK1/JAK2-dependent nuclear translocation of STAT1-GFP, whereas stimulation of U-2 OS cells with recombinant human erythropoietin (rhEpo) results in JAK2-dependent nuclear translocation of STAT5-GFP, both of which can be quantified using the Cellomics Cyto/NucTrans software package. This assay may be used to provide an assessment of the nuclear-cytoplasmic differential (NCD) of STAT-GFP using Hoechst dye to define the boundaries of the nucleus.
HT1080 fibrosarcoma cells may be obtained from ATCC and can be cultured in alpha Modified Eagle Medium with 10% FCS. Cells can be transfected with pEGFP-N2 STAT1 using Fugene 6 Transfection Reagent following the manufacturers' protocol. 24 hours after transfection the medium can be replaced and selected in 1 mg/ml Geneticin.
Compounds can be dissolved in DMSO to a final stock concentration of 10 mM and stored as aliquots at 4° C. Compounds may be pre-diluted in 100% DMSO at 10 mM, 3 mM 1 mM, 0.3 mM, 0.1 mM, 0.03 mM, 0.01 mM and 0.003 mM. Subsequently, compounds may be diluted in medium and added in 50 μl to the cells. The final compound concentrations tested may be 10 μM, 3 μM 1 μM, 0.3 μM, 0.1 μM, 0.03 μM, 0.01 μM and 0.003 μM and the final DMSO concentration can be 0.1%.
HT1080 STAT1-GFP cells may be seeded at a density of 10,000 cells per well in clear-bottom black 96-well Packard View-Plates™. 16-24 hours later, the cells can be treated for 2 hours with 100 ng/ml IFN-γ, washed twice in pre-warmed PBS and fixed in 200 μl of pre-warmed fixation solution (PBS, 3.7% Formaldehyde) for 10 minutes. The plates may be washed twice in 200 μl PBS and incubated, protected from light, in 100 μl of DNA-staining solution (PBS, 0.5 μg/ml Hoechst-33342) for 1 minute. The plates may then be washed once in PBS, and 200 μl PBS finally added per well. The plates, being finally covered with a black adhesive, may be either read directly or stored at 4° C. for later imaging. Where appropriate, the compounds may be added 30 min before stimulation with IFN-γ.
The plates can be read on a Cellomics® ArrayscanII automated fluorescence microscope plate reader equipped with a Mercury-Xenon white light illumination source and a Zeiss Axiovert inverted microscope, using the XF100 dichroic/emission filter cube and matching excitation filters, 10× magnification, and a 0.3 numerical aperture objective. Image acquisition and analysis can be performed using a customized protocol based on the ‘NuclearTranslocation’ Bioapplication. For each well, multiple images (fields) can be acquired until a minimum of 1000 cells are counted using two 2 channels: Channel 1 (Hoechst)=focus+nuclear mask, Channel 2 (GFP)=signal quantification in mask areas as outlined below. Nuclei may be first identified based on the Hoechst staining and a mask generated for each nucleus that then serves as a template to generate a circle (eroded inwards by 1 pixel) and a 3 pixel-wide collar-like ring (off-set outwards by 1 pixel), in which the nuclear and cytoplasmic intensity of GFP, respectively, are quantified in the corresponding channel. High content analysis yields numerous measurements per cell and the GFP intensity differential between the nuclear and the cytoplasmic masks may be chosen as a measure of sub-cellular STAT-GFP relocation. The resulting values may be averaged for all cells in the well to return a single measurement plus standard deviation. […]

T1 sequence (O60674 808-1132): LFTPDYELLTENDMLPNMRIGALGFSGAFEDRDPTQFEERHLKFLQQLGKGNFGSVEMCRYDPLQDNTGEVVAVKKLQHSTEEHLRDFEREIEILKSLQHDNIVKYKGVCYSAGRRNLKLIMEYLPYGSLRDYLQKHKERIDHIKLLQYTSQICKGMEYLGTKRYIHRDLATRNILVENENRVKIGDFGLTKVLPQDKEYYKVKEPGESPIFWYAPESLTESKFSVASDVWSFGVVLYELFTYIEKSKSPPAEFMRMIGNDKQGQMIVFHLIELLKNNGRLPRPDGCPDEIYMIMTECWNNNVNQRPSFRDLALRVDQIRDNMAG

Structure (SMILES) | IC50 [1] | IC50 [2]
Cn1cc(Nc2ncc3ccn(-c4ccc(C(=O)N5CCOCC5)cc4)c3n2)cn1 [Example 253, {4-[2-(1-Methyl-1H-pyrazol-4-ylamino)-pyrrolo[2,3-d]pyrimidin-7-yl]-phenyl}-morpholin-4-yl-methanone] | 7.1 nM | 130 nM
Fc1cc(-n2ccc3cnc(Nc4ccc(N5CCNC6(CC6)C5)nc4)nc32)cc(F)c1CN1CCOCC1 [Example 270, [6-(4,7-Diaza-spiro[2.5]oct-7-yl)-pyridin-3-yl]-[7-(3,5-difluoro-4-morpholin-4-ylmethyl-phenyl)-7H-pyrrolo[2,3-d]pyrimidin-2-yl]-amine] | 4.3 nM | 35 nM
CS(=O)(=O)c1ccc(-n2ccc3cnc(Nc4ccc(C5CCCN5)cc4)nc32)cc1 (centres unmarked) [Example 53, [7-(4-Methanesulfonyl-phenyl)-7H-pyrrolo[2,3-d]pyrimidin-2-yl]-(4-pyrrolidin-2-yl-phenyl)-amine] | < 3 nM | 90.5 nM
COCc1ccc(Nc2ncc3ccn(-c4ccc(C(=O)N5CCOCC5)cc4)c3n2)cc1 [Example 239, {4-[2-(4-Methoxymethyl-phenylamino)-pyrrolo[2,3-d]pyrimidin-7-yl]-phenyl}-morpholin-4-yl-methanone] | 3.9 nM | 660 nM
CN1CCN(Cc2cccc(Nc3ncc4ccn(-c5ccc(S(C)(=O)=O)cc5)c4n3)c2)CC1 [Example 93] | < 3 nM | 191 nM
Cc1cc(Nc2ncc3ccn(-c4ccc(CN5CCS(=O)(=O)CC5)c(F)c4)c3n2)ccc1F [Example 125, {7-[4-(1,1-Dioxido-thiomorpholin-4-ylmethyl)-3-fluoro-phenyl]-7H-pyrrolo[2,3-d]pyrimidin-2-yl}-(4-fluoro-3-methyl-phenyl)-amine] | < 3 nM | 120 nM
Cc1ccc(Nc2ncc3ccn(-c4ccc(CC(=O)N5CCN(C)CC5)cc4)c3n2)cc1C [Example 148, 2-{4-[2-(3,4-Dimethyl-phenylamino)-pyrrolo[2,3-d]pyrimidin-7-yl]-phenyl}-1-(4-methyl-piperazin-1-yl)-ethanone] | 7.9 nM | 47 nM
CN1CCN(C(=O)c2cccc(Nc3ncc4ccn(-c5ccc(S(C)(=O)=O)cc5)c4n3)c2)CC1 [Example 39, {3-[7-(4-Methanesulfonyl-phenyl)-7H-pyrrolo[2,3-d]pyrimidin-2-ylamino]-phenyl}-(4-methyl-piperazin-1-yl)-methanone] | 14 nM | 1370 nM
COCc1ccc(Nc2ncc3ccn(-c4cc(F)c(CN5CCCC5)c(F)c4)c3n2)cc1 [Example 179, [7-(3,5-Difluoro-4-pyrrolidin-1-ylmethyl-phenyl)-7H-pyrrolo[2,3-d]pyrimidin-2-yl]-(4-methoxymethyl-phenyl)-amine] | 10.4 nM | 1520 nM
Fc1cc(-n2ccc3cnc(Nc4ccc(CN5CCOCC5)cc4)nc32)cc(F)c1CN1CCOCC1 [Example 197, [7-(3,5-Difluoro-4-morpholin-4-ylmethyl-phenyl)-7H-pyrrolo[2,3-d]pyrimidin-2-yl]-(4-morpholin-4-ylmethyl-phenyl)-amine] | < 3 nM | 90 nM
CCOc1ccc(Nc2ncc3cc(C)n(-c4ccc(CC(=O)N5CCN(C)CC5)cc4)c3n2)cc1OCC [Example 167, 2-{4-[2-(3,4-Diethoxy-phenylamino)-6-methyl-pyrrolo[2,3-d]pyrimidin-7-yl]-phenyl}-1-(4-methyl-piperazin-1-yl)-ethanone] | 39 nM | 2070 nM
CCN(CC)C(=O)N1CCN(c2ccc(Nc3ncc4ccn(-c5ccc(S(C)(=O)=O)cc5)c4n3)cc2)CC1 [Example 13, 4-{4-[7-(4-Methanesulfonyl-phenyl)-7H-pyrrolo[2,3-d]pyrimidin-2-ylamino]-phenyl}-piperazine-1-carboxylic acid diethylamide] | 3.8 nM | 32 nM
O=C(c1ccc(Nc2ncc3ccn(-c4cc(F)c(CN5CCCC5)c(F)c4)c3n2)cc1)N1CCOCC1 [Example 178, {4-[7-(3,5-Difluoro-4-pyrrolidin-1-ylmethyl-phenyl)-7H-pyrrolo[2,3-d]pyrimidin-2-ylamino]-phenyl}-morpholin-4-yl-methanone] | 9.1 nM | 790 nM
O=C(c1c(F)cc(-n2ccc3cnc(Nc4ccc(N5CCNCC5)nc4)nc32)cc1F)N1CCOCC1 [Example 262, {2,6-Difluoro-4-[2-(6-piperazin-1-yl-pyridin-3-ylamino)-pyrrolo[2,3-d]pyrimidin-7-yl]-phenyl}-morpholin-4-yl-methanone] | 4.2 nM | 285 nM
O=C(NCCN1CCOCC1)c1ccc(-n2ccc3cnc(Nc4ccc(F)cc4)nc32)cc1 [Example 62, 4-[2-(4-Fluoro-phenylamino)-pyrrolo[2,3-d]pyrimidin-7-yl]-N-(2-morpholin-4-yl-ethyl)-benzamide] | 180 nM | 5390 nM
O=S1(=O)CCN(Cc2c(F)cc(-n3ccc4cnc(Nc5cccnc5)nc43)cc2F)CC1 [Example 182, {7-[4-(1,1-Dioxido-thiomorpholin-4-ylmethyl)-3,5-difluoro-phenyl]-7H-pyrrolo[2,3-d]pyrimidin-2-yl}-pyridin-3-yl-amine] | < 3 nM | 125 nM
Cc1ccc(Nc2ncc3ccn(-c4ccc(C(=O)N5CCC(N(C)C)CC5)c(F)c4)c3n2)cc1C [Example 299, (4-Dimethylamino-piperidin-1-yl)-{4-[2-(3,4-dimethyl-phenylamino)-pyrrolo[2,3-d]pyrimidin-7-yl]-2-fluoro-phenyl}-methanone] | 18.5 nM | 145 nM
Cc1ccc(Nc2ncc3ccn(-c4cc(F)c(CN5CCN(C6CC6)CC5)c(F)c4)c3n2)cc1C [Example 306, {7-[4-(4-Cyclopropyl-piperazin-1-yl methyl)-3,5-difluoro-phenyl]-7H-pyrrolo[2,3-d]pyrimidin-2-yl}-(3,4-dimethyl-phenyl)-amine] | 39.5 nM | 550 nM
CC(C)Oc1ccc(Nc2ncc3ccn(-c4ccc(CN5CCS(=O)(=O)CC5)c(Cl)c4)c3n2)cc1 [Example 113, {7-[3-Chloro-4-(1,1-dioxido-thiomorpholin-4-ylmethyl)-phenyl]-7H-pyrrolo[2,3-d]pyrimidin-2-yl}-(4-isopropoxy-phenyl)-amine] | 4.2 nM | 108 nM
CCN1CCN(C(=O)Cc2cccc(Nc3ncc4ccn(-c5cc(F)c(CN6CCOCC6)c(F)c5)c4n3)c2)CC1 [Example 172, 2-{3-[7-(3,5-Difluoro-4-morpholin-4-ylmethyl-phenyl)-7H-pyrrolo[2,3-d]pyrimidin-2-ylamino]-phenyl}-1-(4-ethyl-piperazin-1-yl)-ethanone] | < 3 nM | 220 nM
CCOc1ccc(Nc2ncc3ccn(-c4ccc(CN5CCOCC5)cc4)c3n2)cc1OCC [Example 147, (3,4-Diethoxy-phenyl)-[7-(4-morpholin-4-ylmethyl-phenyl)-7H-pyrrolo[2,3-d]pyrimidin-2-yl]-amine] | < 3 nM | 33 nM
CC(C)Oc1ccc(Nc2ncc3ccn(-c4ccc(C(=O)N5CCN(C)CC5)c(F)c4)c3n2)cc1 [Example 85, {2-Fluoro-4-[2-(4-isopropoxy-phenylamino)-pyrrolo[2,3-d]pyrimidin-7-yl]-phenyl}-(4-methyl-piperazin-1-yl)-methanone] | 3.8 nM | 3500 nM
